Measurements published in PubChem BioAssay AID256 (DTP/NCI, 2004).
Toxic doses and inconclusive results are not listed. Rule for the calls: active = survival T/C of 150% or more; inactive = T/C below 125% in these data.

Tested on: CD2F1 mice, L1210 leukemia ip, survival T/C
Assay: NCI In Vivo Anticancer Drug Screen. Data for tumor model L1210 Leukemia (intraperitoneal) in CD2F1 (CDF1) mice
Conditions: higher = longer survival
In short: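 Transplantable tumor in mice; compound-treated vs vehicle-treated groups. Read-out = treated/control ratio of the measured endpoint.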

[1] = endpoint: mean survival time, dose: 5.0 mg/kg/injection, schedule: Q04DX003 (ip), vehicle: saline with Tween-80
[2] = endpoint: mean survival time, dose: 10.0 mg/kg/injection, schedule: Q04DX003 (ip), vehicle: saline with Tween-80
[3] = endpoint: mean survival time, dose: 20.0 mg/kg/injection, schedule: Q04DX003 (ip), vehicle: saline with Tween-80
[4] = endpoint: mean survival time, dose: 100.0 mg/kg/injection, schedule: Q04DX002 (ip), vehicle: saline with Tween-80
[5] = endpoint: mean survival time, dose: 200.0 mg/kg/injection, schedule: Q04DX002 (ip), vehicle: saline with Tween-80
[6] = endpoint: mean survival time, dose: 50.0 mg/kg/injection, schedule: Q01DX009 (ip), vehicle: saline with Tween-80
[7] = endpoint: mean survival time, dose: 100.0 mg/kg/injection, schedule: Q04DX003 (ip), vehicle: saline with Tween-80
[8] = endpoint: mean survival time, dose: 200.0 mg/kg/injection, schedule: Q04DX003 (ip), vehicle: saline with Tween-80
[9] = endpoint: mean survival time, dose: 100.0 mg/kg/injection, schedule: Q01DX009 (ip), vehicle: saline with Tween-80
[10] = endpoint: mean survival time, dose: 200.0 mg/kg/injection, schedule: Q01DX009 (ip), vehicle: saline with Tween-80
[11] = endpoint: mean survival time, dose: 100.0 mg/kg/injection, schedule: Q04DX003 (ip), vehicle: saline
[12] = endpoint: mean survival time, dose: 200.0 mg/kg/injection, schedule: Q04DX003 (ip), vehicle: saline
[13] = endpoint: mean survival time, dose: 400.0 mg/kg/injection, schedule: Q04DX003 (ip), vehicle: saline
[14] = endpoint: mean survival time, dose: 50.0 mg/kg/injection, schedule: Q04DX002 (ip), vehicle: saline with Tween-80

Measured: T/C

O=C1C(Cl)=C(Cl)C(=O)c2ccccc21
inactive: [1] 98 % of control | [2] 93 % of control | [3] 101 % of control

CC1=COC(Cc2ccc(Cl)cc2)C(c2ccccc2)(c2ccccc2)C1=O (stereo unspecified)
inactive: endpoint: mean survival time, dose: 100.0 mg/kg/injection, schedule: Q01DX001 (ip), vehicle: saline sonified 105 % of control | [4] 89 % of control | endpoint: mean survival time, dose: 200.0 mg/kg/injection, schedule: Q01DX001 (ip), vehicle: saline sonified 94 % of control | [5] 89 % of control | endpoint: mean survival time, dose: 400.0 mg/kg/injection, schedule: Q01DX001 (ip), vehicle: saline sonified 90 % of control | endpoint: mean survival time, dose: 400.0 mg/kg/injection, schedule: Q04DX002 (ip), vehicle: saline with Tween-80 89 % of control

CN(C)CCCN=Cc1ccc(O)cc1O.CN(C)CCCN=Cc1ccc(O)cc1O.[Ni+2]
inactive: endpoint: mean survival time, dose: 12.5 mg/kg/injection, schedule: Q01DX009 (ip), vehicle: saline with Tween-80 94 % of control | endpoint: mean survival time, dose: 25.0 mg/kg/injection, schedule: Q01DX009 (ip), vehicle: saline with Tween-80 93 % of control | [6] 94 % of control

CCCCNC(=O)C1C=C2c3cccc4c3C(CN4)CC2N(C)C1 (stereo unspecified)
inactive: endpoint: mean survival time, dose: 50.0 mg/kg/injection, schedule: Q04DX003 (ip), vehicle: saline with Tween-80 88 % of control | [7] 91 % of control | [8] 96 % of control

C=CCSc1ncnc2c1cnn2C1OC(CO)C(O)C1O (stereo unspecified)
inactive: endpoint: mean survival time, dose: 12.5 mg/kg/injection, schedule: Q01DX005 (ip), vehicle: water 102 % of control | endpoint: mean survival time, dose: 25.0 mg/kg/injection, schedule: Q01DX005 (ip), vehicle: water 98 % of control | endpoint: mean survival time, dose: 50.0 mg/kg/injection, schedule: Q01DX005 (ip), vehicle: water 98 % of control | endpoint: mean survival time, dose: 100.0 mg/kg/injection, schedule: Q01DX005 (ip), vehicle: water 102 % of control

COC1CCCCC1SCSC1CCCCC1OC (stereo unspecified)
inactive: [7] 91 % of control | [8] 87 % of control | endpoint: mean survival time, dose: 400.0 mg/kg/injection, schedule: Q04DX003 (ip), vehicle: saline with Tween-80 89 % of control

CC(C)=CCC/C(C)=C\COC(=N)C(Cl)(Cl)Cl
inactive: [6] 88 % of control | [9] 92 % of control | [10] 92 % of control

Nc1nc(N)c2c(n1)NCN(Cc1ccc(Cl)c(Cl)c1)C2
inactive: endpoint: mean survival time, dose: 0.75 mg/kg/injection, schedule: Q01DX009 (ip), vehicle: water 102 % of control | endpoint: mean survival time, dose: 1.5 mg/kg/injection, schedule: Q01DX009 (ip), vehicle: water 98 % of control | endpoint: mean survival time, dose: 3.0 mg/kg/injection, schedule: Q01DX009 (ip), vehicle: water 102 % of control | endpoint: mean survival time, dose: 6.0 mg/kg/injection, schedule: Q01DX009 (ip), vehicle: water 102 % of control | endpoint: mean survival time, dose: 12.0 mg/kg/injection, schedule: Q01DX009 (ip), vehicle: water 100 % of control | endpoint: mean survival time, dose: 24.0 mg/kg/injection, schedule: Q01DX009 (ip), vehicle: water 102 % of control | endpoint: mean survival time, dose: 50.0 mg/kg/injection, schedule: Q01DX009 (ip), vehicle: water 94 % of control

Cc1cc(CSC(=N)N)c(C)cc1CSC(=N)N
inactive: endpoint: mean survival time, dose: 5.0 mg/kg/injection, schedule: Q01DX009 (ip), vehicle: saline with Tween-80 92 % of control | [1] 106 % of control | endpoint: mean survival time, dose: 10.0 mg/kg/injection, schedule: Q01DX009 (ip), vehicle: saline with Tween-80 101 % of control | [2] 106 % of control | endpoint: mean survival time, dose: 20.0 mg/kg/injection, schedule: Q01DX009 (ip), vehicle: saline with Tween-80 95 % of control | [3] 101 % of control

CSc1ccc(NC(=O)C(O)C(O)C(O)C(O)CO)cc1 (stereo unspecified)
inactive: endpoint: mean survival time, dose: 100.0 mg/kg/injection, schedule: Q01DX009 (ip), vehicle: saline 103 % of control | endpoint: mean survival time, dose: 200.0 mg/kg/injection, schedule: Q01DX009 (ip), vehicle: saline 113 % of control | endpoint: mean survival time, dose: 400.0 mg/kg/injection, schedule: Q01DX009 (ip), vehicle: saline 102 % of control

CCCCCc1ccc(C(C)=O)cc1
inactive: [9] 103 % of control | [10] 103 % of control | endpoint: mean survival time, dose: 400.0 mg/kg/injection, schedule: Q01DX009 (ip), vehicle: saline with Tween-80 88 % of control

C=CCN(CC=C)C(=O)OCC
inactive: [9] 97 % of control | [11] 97 % of control | [10] 96 % of control | [12] 95 % of control | [13] 101 % of control

O=S(=O)(OC(Cc1ccccc1)Cc1ccccc1)c1ccc(Br)cc1
inactive: [6] 95 % of control | [9] 91 % of control | [10] 95 % of control

CCN(CC)C(=O)Nc1ccc(Cl)cc1
inactive: [4] 104 % of control | [5] 108 % of control

CC(N)C(=O)NC1C(CO)OC(n2cnc3c(N)ncnc32)C1O (stereo unspecified)
inactive: endpoint: mean survival time, dose: 100.0 mg/kg/injection, schedule: Q01DX001 (ip), vehicle: saline 100 % of control | endpoint: mean survival time, dose: 200.0 mg/kg/injection, schedule: Q01DX001 (ip), vehicle: saline 97 % of control | endpoint: mean survival time, dose: 400.0 mg/kg/injection, schedule: Q01DX001 (ip), vehicle: saline 100 % of control

O=C(O)C1(c2ccccc2)OCCO1
inactive: [11] 103 % of control | [12] 103 % of control | [13] 97 % of control

CCC12C=CC(OC)(CC1)C(C#N)C2 (stereo unspecified)
inactive: [14] 103 % of control | [4] 100 % of control | [5] 91 % of control

S=C=Nc1ccccn1
inactive: [4] 86 % of control | [5] 101 % of control

[Cl][Pt+2][Cl].[NH-]CCN(CCN)CCN
inactive: endpoint: mean survival time, dose: 12.5 mg/kg/injection, schedule: Q04DX003 (ip), vehicle: saline with Tween-80 97 % of control | endpoint: mean survival time, dose: 25.0 mg/kg/injection, schedule: Q04DX003 (ip), vehicle: saline with Tween-80 98 % of control

CCCCCCCCCCCCCC[n+]1ccccc1
inactive: endpoint: mean survival time, dose: 0.07 mg/kg/injection, schedule: Q01DX009 (ip), vehicle: saline 93 % of control | endpoint: mean survival time, dose: 0.13 mg/kg/injection, schedule: Q01DX009 (ip), vehicle: saline 101 % of control | endpoint: mean survival time, dose: 0.25 mg/kg/injection, schedule: Q01DX009 (ip), vehicle: saline 103 % of control | endpoint: mean survival time, dose: 0.25 mg/kg/injection, schedule: Q04DX003 (ip), vehicle: saline sonified 102 % of control

C[Si](C)(C)OC1CC(=O)OC1n1cc(F)c(=O)[nH]c1=O (stereo unspecified)
inactive: endpoint: median survival time, dose: 12.5 mg/kg/injection, schedule: Q01DX005 (ip), vehicle: saline 103 % of control | endpoint: median survival time, dose: 25.0 mg/kg/injection, schedule: Q01DX005 (ip), vehicle: saline 107 % of control | endpoint: median survival time, dose: 50.0 mg/kg/injection, schedule: Q01DX005 (ip), vehicle: saline 113 % of control | endpoint: median survival time, dose: 100.0 mg/kg/injection, schedule: Q01DX005 (ip), vehicle: saline 116 % of control

COc1cc([N+](=O)[O-])c(C(=O)O)c(C(=O)O)c1OC
inactive: endpoint: mean survival time, dose: 12.5 mg/kg/injection, schedule: Q04DX002 (ip), vehicle: saline with Tween-80 104 % of control | endpoint: mean survival time, dose: 25.0 mg/kg/injection, schedule: Q04DX002 (ip), vehicle: saline with Tween-80 96 % of control | [14] 104 % of control

CCOC(=O)c1[nH]c(C)c(C(=O)OCC)c1C
inactive: endpoint: mean survival time, dose: 100.0 mg/kg/injection, schedule: Q04DX003 (ip), vehicle: Klucel (hydroxypropylcellulose) (HPC) 103 % of control | endpoint: mean survival time, dose: 200.0 mg/kg/injection, schedule: Q04DX003 (ip), vehicle: Klucel (hydroxypropylcellulose) (HPC) 103 % of control | endpoint: mean survival time, dose: 400.0 mg/kg/injection, schedule: Q04DX003 (ip), vehicle: Klucel (hydroxypropylcellulose) (HPC) 95 % of control
